Here are results for 51 compounds from the Biogen ADME set (Fang et al. 2023).

The conditions of this data set: for aqueous solubility: pH 6.8.

≈ marks a conversion by molar mass, not a printed value.

With `C=CCN(C)CCCCCCOc1ccc(C(=O)c2ccc(Br)cc2)c(F)c1`, the intrinsic clearance, human liver microsomes came out at 1.87 L/h/kg; the intrinsic clearance, rat liver microsomes was 19.2 L/h/kg; the aqueous solubility is 0.0214 mg/mL (≈ 47.7 µM).
Compound `c1cncc(-c2ccnn2CN2CCOCC2)c1` had an aqueous solubility of 0.0173 mg/mL (≈ 71 µM).
Regarding `C=CC(=O)Nc1cccc(Oc2nc(Nc3ccc(N4CCN(C)CC4)c(F)c3)nc3[nH]ccc23)c1`, the MDR1-MDCK efflux ratio is 50.6; the fraction unbound, human plasma came out at 0.0109; the fraction unbound, rat plasma was determined as 0.00726; the intrinsic clearance, human liver microsomes came to 1.61 L/h/kg. Moreover, the intrinsic clearance, rat liver microsomes is 20.7 L/h/kg.
As for `c1cnc(NCc2cccc3cnccc23)nc1`, the intrinsic clearance, human liver microsomes turned out to be 3.63 L/h/kg and the intrinsic clearance, rat liver microsomes was determined as 10.7 L/h/kg.
On to `O=S(=O)(N1CCOCC1)N1CCN(Cc2ccccc2F)CC1`, for which the MDR1-MDCK efflux ratio amounted to 0.958; the intrinsic clearance, human liver microsomes is 1.26 L/h/kg; the intrinsic clearance, rat liver microsomes amounted to 40.6 L/h/kg; the aqueous solubility was 0.036 mg/mL (≈ 105 µM).
As for `N#Cc1cnc2ccccc2c1OCCO`, the intrinsic clearance, human liver microsomes was determined as 0.625 L/h/kg and the intrinsic clearance, rat liver microsomes amounted to 0.762 L/h/kg.
Regarding `N#Cc1ccc(CN2CC(n3cccn3)C2)cc1`, the MDR1-MDCK efflux ratio came out at 0.596; the intrinsic clearance, human liver microsomes is no more than 0.284 L/h/kg; the intrinsic clearance, rat liver microsomes is 1.24 L/h/kg; the aqueous solubility was determined as 0.0365 mg/mL (≈ 153 µM).
For `CCNC(=O)c1cc(C2CC2)nc2c1c(C)nn2-c1ccccn1` the same measures were 3.78, 1.55 L/h/kg, 4.24 L/h/kg and 0.0541 mg/mL (≈ 168 µM).
As for `C#CCOc1ccc(OC)cc1C(N)=O`, the MDR1-MDCK efflux ratio is 0.717; the intrinsic clearance, human liver microsomes was 0.828 L/h/kg; the intrinsic clearance, rat liver microsomes was 4.4 L/h/kg.
As to `Cn1ccnc1CN1CCN(Cc2ccc(F)cc2C#N)CC1`, the MDR1-MDCK efflux ratio was determined as 6.3; the intrinsic clearance, human liver microsomes is no more than 0.284 L/h/kg; the intrinsic clearance, rat liver microsomes stood at 26.8 L/h/kg; the aqueous solubility came out at 0.0439 mg/mL (≈ 140 µM).
The compound `CCN1CCN(c2ccc(NC(=O)c3ncoc3-c3ccc4ccccc4c3)cc2)CC1` returned an intrinsic clearance, human liver microsomes of 1.15 L/h/kg; an intrinsic clearance, rat liver microsomes of 17.8 L/h/kg; an aqueous solubility of 0.00102 mg/mL (≈ 2.39 µM).
In the case of `C#CCNC(=O)CN1C(=O)c2ccccc2C1=O`, the aqueous solubility amounted to 0.0389 mg/mL (≈ 161 µM).
On to `CCCS(=O)(=O)Nc1ccc(F)c(C(=O)c2c[nH]c3ncc(Cl)cc23)c1F`, for which the intrinsic clearance, human liver microsomes was determined as 0.457 L/h/kg and the intrinsic clearance, rat liver microsomes stood at 1.33 L/h/kg.
As for `CC#CCCNC(=O)c1cccnc1C`, the MDR1-MDCK efflux ratio came to 0.755; the intrinsic clearance, human liver microsomes was no more than 0.284 L/h/kg; the intrinsic clearance, rat liver microsomes amounted to 1.29 L/h/kg.
With `COc1ccc(-c2c(C)n[nH]c2C)cn1`, the MDR1-MDCK efflux ratio is 0.678; the intrinsic clearance, human liver microsomes is no more than 0.284 L/h/kg; the intrinsic clearance, rat liver microsomes stood at 3.13 L/h/kg; the aqueous solubility was found to be 0.0147 mg/mL (≈ 72.4 µM).
In the same order, the values of `CCN(CC)C(=O)c1ccc(NC(C)=O)cc1` are 1.95, no more than 0.284 L/h/kg, 1.54 L/h/kg and 0.0346 mg/mL (≈ 148 µM).
As for `Cc1csc(NC(=O)c2cccc(C)c2C)n1`, the intrinsic clearance, human liver microsomes turned out to be 10.4 L/h/kg; the intrinsic clearance, rat liver microsomes came to 54.9 L/h/kg; the aqueous solubility was found to be 0.0113 mg/mL (≈ 45.8 µM).
On to `Cc1ncccc1CNc1ccc(CC#N)cc1`, for which the MDR1-MDCK efflux ratio came out at 0.534; the intrinsic clearance, human liver microsomes was determined as 1.09 L/h/kg; the intrinsic clearance, rat liver microsomes came out at 21.8 L/h/kg.
In the same order, the values of `CN(C)S(=O)(=O)CCCN1CCC(CCC(N)=O)CC1` are 0.425, no more than 0.284 L/h/kg and no more than 0.64 L/h/kg.
In turn, `C=CCNC1=C2C[C@@H](C)C[C@@H](OC)[C@@H](O)[C@@H](C)/C=C(\C)[C@@H](OC(N)=O)[C@@H](OC)/C=C\C=C(/C)C(=O)NC(=CC1=O)C2=O` gave an intrinsic clearance, human liver microsomes of 29.3 L/h/kg and an intrinsic clearance, rat liver microsomes of 60.8 L/h/kg.
With `NCc1ccc(Oc2ccccc2)nc1`, the intrinsic clearance, human liver microsomes amounted to 1.24 L/h/kg; the intrinsic clearance, rat liver microsomes was determined as 3.03 L/h/kg; the aqueous solubility is 0.022 mg/mL (≈ 110 µM).
Consider `COc1cccc(C(=O)N(C)CC(F)(F)F)c1OCCCN`, for which the MDR1-MDCK efflux ratio was 30.1; the intrinsic clearance, human liver microsomes was no more than 0.284 L/h/kg; the intrinsic clearance, rat liver microsomes stood at 4.92 L/h/kg.
As to `CN(C)C(=O)c1ccnc(NCc2cccc(C#N)c2)c1`, the MDR1-MDCK efflux ratio was found to be 5.72; the intrinsic clearance, human liver microsomes is no more than 0.284 L/h/kg; the intrinsic clearance, rat liver microsomes worked out at 4.14 L/h/kg.
As for `Cc1nc(COc2ccc(F)cc2)sc1C(=O)N1CCC(C)CC1`, the MDR1-MDCK efflux ratio stood at 0.543; the intrinsic clearance, human liver microsomes was 5.41 L/h/kg; the intrinsic clearance, rat liver microsomes stood at 151 L/h/kg; the aqueous solubility worked out at 0.0474 mg/mL (≈ 136 µM).
For `O=C(NO)c1cnc(NC2(c3ccccc3)CC2)nc1`, the intrinsic clearance, human liver microsomes is no more than 0.284 L/h/kg and the intrinsic clearance, rat liver microsomes turned out to be 1.05 L/h/kg.
As to `CC(=O)Nc1cccc(OC(=O)N2CCOCC2)c1`, the MDR1-MDCK efflux ratio stood at 2.62; the intrinsic clearance, human liver microsomes was determined as 0.452 L/h/kg; the intrinsic clearance, rat liver microsomes was no more than 0.64 L/h/kg; the aqueous solubility came out at 0.0567 mg/mL (≈ 215 µM).
As for `Cn1cc(C(=O)O)c(-c2cccnc2)n1`, the aqueous solubility turned out to be 0.0408 mg/mL (≈ 201 µM).
Regarding `COc1ccccc1-c1cc(NC(=O)c2cccc(N3CCNC3=O)c2)[nH]n1`, the MDR1-MDCK efflux ratio was determined as 60.4; the fraction unbound, human plasma came to 0.004; the fraction unbound, rat plasma was determined as 0.00181; the intrinsic clearance, human liver microsomes is 0.452 L/h/kg. Besides, the intrinsic clearance, rat liver microsomes is 6.18 L/h/kg and the aqueous solubility was 0.00595 mg/mL (≈ 15.8 µM).
For `CC(C)N(C(=O)Cn1cccc2cc(-c3ccco3)nc1-2)C(C)C`, the MDR1-MDCK efflux ratio worked out at 1.81; the intrinsic clearance, human liver microsomes came to 22.4 L/h/kg; the intrinsic clearance, rat liver microsomes stood at 107 L/h/kg.
Regarding `Cn1cc(-c2ccnc(/C=C/c3ccc(F)cc3Br)n2)cn1`, the MDR1-MDCK efflux ratio is 0.658 and the aqueous solubility was determined as 0.00068 mg/mL (≈ 1.89 µM).
For the compound `OCCC1(CNc2ncc(Br)cn2)CC1`, the MDR1-MDCK efflux ratio is 0.674; the intrinsic clearance, human liver microsomes was 0.519 L/h/kg; the intrinsic clearance, rat liver microsomes was found to be 4.91 L/h/kg.
In the case of `Cc1cc(C(=O)N2CCS(=O)(=O)CC2)c(C)o1`, the intrinsic clearance, human liver microsomes was no more than 0.284 L/h/kg and the intrinsic clearance, rat liver microsomes was no more than 0.64 L/h/kg.
Regarding `CCc1cc(-c2ccc(OC)c3ncccc23)nc(N2CCOCC2)n1`, the MDR1-MDCK efflux ratio was determined as 0.848; the intrinsic clearance, human liver microsomes was 1.71 L/h/kg; the intrinsic clearance, rat liver microsomes was 5.72 L/h/kg.
Consider `Cc1ccnc(NC(=O)c2ccnc(C)n2)c1`, for which the intrinsic clearance, human liver microsomes came out at 8.21 L/h/kg and the intrinsic clearance, rat liver microsomes was 34.1 L/h/kg.
In turn, `O=c1c(N2CCCC2)c(Cl)cnn1-c1ccccc1` came in with an aqueous solubility of 0.0171 mg/mL (≈ 62.1 µM).
Turning to `O=C(Nc1nc2cc(C(F)(F)F)cc(NC3CC3)n2n1)c1cccnc1`, the MDR1-MDCK efflux ratio amounted to 2.35; the intrinsic clearance, human liver microsomes is no more than 0.284 L/h/kg; the intrinsic clearance, rat liver microsomes is 2.38 L/h/kg; the aqueous solubility stood at 0.0011 mg/mL (≈ 3.04 µM).
With `CS(=O)(=O)CCNC(=O)N1CC2(CCCC2)c2ccccc21`, the MDR1-MDCK efflux ratio is 3.67; the intrinsic clearance, human liver microsomes was 0.579 L/h/kg; the intrinsic clearance, rat liver microsomes was determined as 11.5 L/h/kg; the aqueous solubility is 0.0474 mg/mL (≈ 147 µM).
Compound `O=C1NC2(CCC2)C(=O)N1Cc1ccon1` showed an intrinsic clearance, human liver microsomes of no more than 0.284 L/h/kg and an intrinsic clearance, rat liver microsomes of no more than 0.64 L/h/kg.
As to `N#Cc1ccccc1OCn1nnc2ccccc2c1=O`, the aqueous solubility is 0.00065 mg/mL (≈ 2.34 µM).
Turning to `Cc1cc2ccccc2n1CC(=O)N1CCc2ccc(O)cc2C1`, the MDR1-MDCK efflux ratio turned out to be 2.59; the intrinsic clearance, human liver microsomes was found to be 1.52 L/h/kg; the intrinsic clearance, rat liver microsomes worked out at 27.3 L/h/kg; the aqueous solubility was determined as 0.0124 mg/mL (≈ 38.8 µM).
In turn, `O=C(Nc1nc2ccccc2[nH]1)c1ccccc1` showed an aqueous solubility of 0.00165 mg/mL (≈ 6.95 µM).
For the compound `O[C@@H]1C[C@@H](c2nc(-c3cccnc3)no2)N(CCCc2ccccc2)C1`, the MDR1-MDCK efflux ratio stood at 1.19; the intrinsic clearance, human liver microsomes worked out at 6.46 L/h/kg; the intrinsic clearance, rat liver microsomes amounted to 114 L/h/kg; the aqueous solubility came out at 0.0456 mg/mL (≈ 130 µM).
Regarding `Cc1nnc(COc2cccc(-n3ccnc3)c2)n1C1CC1`, the MDR1-MDCK efflux ratio amounted to 23.1; the intrinsic clearance, human liver microsomes is no more than 0.284 L/h/kg; the intrinsic clearance, rat liver microsomes is 0.994 L/h/kg.
For the compound `c1ccc(-c2n[nH]c(C3CCN(c4cnc5ccccc5n4)CC3)n2)cc1`, the MDR1-MDCK efflux ratio was determined as 1.2; the intrinsic clearance, human liver microsomes was determined as 0.64 L/h/kg; the intrinsic clearance, rat liver microsomes stood at 6.83 L/h/kg; the aqueous solubility was determined as 0.00621 mg/mL (≈ 17.4 µM).
Turning to `COc1cccc2cc(C(N)=S)/c(=N/Nc3ccccc3)oc12`, the MDR1-MDCK efflux ratio is 0.496 and the aqueous solubility worked out at 0.00045 mg/mL (≈ 1.38 µM).
Regarding `Cc1ccc(C(=O)N2CCC(Cc3ccccc3-c3ccccc3)(C(=O)N(C)C)CC2)s1`, the MDR1-MDCK efflux ratio stood at 1.12; the fraction unbound, human plasma was determined as 0.00509; the fraction unbound, rat plasma is 0.00257; the intrinsic clearance, human liver microsomes stood at 46.1 L/h/kg. Also, the intrinsic clearance, rat liver microsomes stood at 91.3 L/h/kg and the aqueous solubility was found to be 0.0238 mg/mL (≈ 53.3 µM).
Regarding `CNC(=O)N1CCc2nc3ccc(Cl)cn3c(=O)c2C1`, the MDR1-MDCK efflux ratio stood at 6.16; the intrinsic clearance, human liver microsomes is no more than 0.284 L/h/kg; the intrinsic clearance, rat liver microsomes is no more than 0.64 L/h/kg; the aqueous solubility worked out at 0.0505 mg/mL (≈ 173 µM).
Regarding `C[C@H]1CN2C[C@H](O)C[C@@H]2CN1Cc1cccc2ccccc12`, the MDR1-MDCK efflux ratio turned out to be 1.69; the intrinsic clearance, human liver microsomes was found to be 1.45 L/h/kg; the intrinsic clearance, rat liver microsomes is 115 L/h/kg.
`COc1cccc(N2CCN(c3nc(C)cc(C)c3C#N)CC2)c1`: the MDR1-MDCK efflux ratio was found to be 0.519 and the aqueous solubility was 0.0009 mg/mL (≈ 2.79 µM).
Consider `CC[C@@H]1CN(c2ccc(C(=O)Nc3cn4cc(C)nc4cn3)c(F)c2)CCN1`, for which the MDR1-MDCK efflux ratio stood at 2.39.
As to `Cc1ccnc(Oc2cc(N)ccc2C)c1`, the MDR1-MDCK efflux ratio was determined as 0.542; the intrinsic clearance, human liver microsomes was no more than 0.284 L/h/kg; the intrinsic clearance, rat liver microsomes amounted to 13.8 L/h/kg; the aqueous solubility was 0.0353 mg/mL (≈ 165 µM).

One may read the aqueous solubility as the concentration that dissolves in the medium under given conditions. Low values mean a poorly soluble substance, high ones a readily soluble substance.
